Measurements as given in patent US20180244611A1, “Modulators of the Cystic Fibrosis Transmembrane Conductance Regulator Protein and Methods of Use” (AbbVie S.à.r.l., priority 2017, published 2018).

Columns and labels:
F508delCFTR [1] = target: T1, F508delCFTR (Homo sapiens, UniProt P13569, DEL508-508); experiment: Cell Surface Expression-Horse Radish Peroxidase (CSE-HRP) assay, test compound without co-corrector; type: cell-based; settings: for Emax: maximum at any tested concentration, normalized to positive control, without co-corrector; for EC50: test compound without co-corrector;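 as to Emax: percent of on-plate 2 µM positive control corrector response over DMSO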
T1 construct: expressed in transfected cells; host or cells: CFBE41o- human lung-derived epithelial cells (CFBE41o-F508delCFTR-HRP), doxycycline-inducible
T1 sequence (P13569 with tags, fused parts or gaps DEL508-508): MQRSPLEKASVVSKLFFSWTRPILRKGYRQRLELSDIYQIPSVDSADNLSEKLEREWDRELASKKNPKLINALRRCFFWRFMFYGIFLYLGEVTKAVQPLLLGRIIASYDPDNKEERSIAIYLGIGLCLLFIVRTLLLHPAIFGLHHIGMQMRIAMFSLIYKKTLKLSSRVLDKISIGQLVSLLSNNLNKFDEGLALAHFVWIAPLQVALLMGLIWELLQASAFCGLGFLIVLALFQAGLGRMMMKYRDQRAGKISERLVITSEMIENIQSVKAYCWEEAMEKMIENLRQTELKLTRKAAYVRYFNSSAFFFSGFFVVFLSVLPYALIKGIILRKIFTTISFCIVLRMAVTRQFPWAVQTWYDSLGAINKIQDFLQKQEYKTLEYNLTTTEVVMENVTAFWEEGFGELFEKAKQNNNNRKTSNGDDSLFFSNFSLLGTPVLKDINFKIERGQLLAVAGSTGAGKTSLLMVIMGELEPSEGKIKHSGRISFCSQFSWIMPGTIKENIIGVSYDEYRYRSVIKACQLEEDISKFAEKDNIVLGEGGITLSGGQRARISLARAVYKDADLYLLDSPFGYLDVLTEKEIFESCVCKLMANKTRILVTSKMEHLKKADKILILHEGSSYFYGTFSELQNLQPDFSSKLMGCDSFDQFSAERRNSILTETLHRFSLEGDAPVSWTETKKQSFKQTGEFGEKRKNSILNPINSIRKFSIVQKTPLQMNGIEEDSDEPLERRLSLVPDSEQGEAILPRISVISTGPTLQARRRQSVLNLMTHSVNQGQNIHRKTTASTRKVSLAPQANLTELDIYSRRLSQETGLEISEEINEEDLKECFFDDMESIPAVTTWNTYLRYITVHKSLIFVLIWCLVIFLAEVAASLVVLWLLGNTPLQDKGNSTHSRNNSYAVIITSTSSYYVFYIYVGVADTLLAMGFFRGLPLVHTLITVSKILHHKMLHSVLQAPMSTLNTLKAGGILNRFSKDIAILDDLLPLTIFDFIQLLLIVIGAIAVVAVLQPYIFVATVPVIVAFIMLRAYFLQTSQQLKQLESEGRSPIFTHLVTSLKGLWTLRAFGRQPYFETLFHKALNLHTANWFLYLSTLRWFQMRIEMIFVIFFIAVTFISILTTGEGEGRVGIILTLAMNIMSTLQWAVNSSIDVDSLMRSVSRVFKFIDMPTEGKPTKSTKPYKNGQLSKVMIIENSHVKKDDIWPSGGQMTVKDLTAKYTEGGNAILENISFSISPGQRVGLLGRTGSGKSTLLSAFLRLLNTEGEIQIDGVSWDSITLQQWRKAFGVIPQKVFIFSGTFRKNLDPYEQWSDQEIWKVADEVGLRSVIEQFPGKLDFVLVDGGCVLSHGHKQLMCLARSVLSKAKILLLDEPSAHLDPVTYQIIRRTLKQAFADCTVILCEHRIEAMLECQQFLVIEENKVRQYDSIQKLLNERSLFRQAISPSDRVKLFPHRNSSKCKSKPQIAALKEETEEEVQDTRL
How it was run: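 CFBE41o- cells expressing F508delCFTR with HRP in the fourth exofacial loop, induced with 0.5 μg/mL doxycycline for 72 h at 37° C, then exposed to compound alone for 18-24 h at 33° C, 8-point 3-fold series from 20 μM. Surface HRP read by luminol luminescence, normalized to positive corrector control versus DMSO; EC50 from variable-slope sigmoidal fit of three replicate plates.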

F508delCFTR [2] = target: T1, F508delCFTR; experiment: Cell Surface Expression-Horse Radish Peroxidase (CSE-HRP) assay, test compound with co-corrector; type: cell-based; settings: with 2 μM co-corrector; for Maximum % activity (with co-corrector): maximum at any tested concentration, normalized to positive control;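 as to Maximum % activity (with co-corrector): percent of 2 µM positive control corrector over DMSO; co-corrector is that same compound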
How it was run: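 CFBE41o- cells expressing F508delCFTR with HRP in the fourth exofacial loop, induced with 0.5 μg/mL doxycycline for 72 h, then treated 18-24 h at 33° C. with compound (8 points, top 20 μM, 3-fold) plus 2 μM co-corrector. Surface HRP read by luminol luminescence; activity normalised to positive control, EC50 from variable-slope sigmoidal fit.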

SMILES	Emax (F508delCFTR [1])	EC50 (F508delCFTR [1])	Maximum % activity (with co-corrector) (F508delCFTR [2])	EC50 (F508delCFTR [2])
COc1ccc(C(F)(F)F)c2c1[C@H](C(=O)NS(=O)(=O)c1cccc3nc(C)ccc13)CC2 [Example I-118, (1R)-7-methoxy-N-(2-methylquinoline-5-sulfonyl)-4-(trifluoromethyl)-2,3-dihydro-1H-indene-1-carboxamide]	≥ 150%	< 3 µM	+++ (≥350)	< 3 µM
COc1ccc(C2CCC2)c2c1C(C(=O)NS(=O)(=O)c1cccc3c1NCCC3)CC2 (stereo not drawn) [Example I-119, 4-cyclobutyl-7-methoxy-N-(1,2,3,4-tetrahydroquinoline-8-sulfonyl)-2,3-dihydro-1H-indene-1-carboxamide]	≥ 150%	3 to 10 µM	+++ (≥350)	3 to 10 µM
COc1ncc(C2CCC2)c2c1[C@H](C(=O)NS(=O)(=O)c1cccc3ccccc13)CCC2 [Example I-120, (8R)-4-cyclobutyl-1-methoxy-N-(naphthalene-1-sulfonyl)-5,6,7,8-tetrahydroisoquinoline-8-carboxamide]	≥ 150%	< 3 µM	+++ (≥350)	< 3 µM
COc1ncc(C2CCC2)c2c1[C@@H](C(=O)NS(=O)(=O)c1cccc3ccccc13)CCC2 [Example I-121, (8S)-4-cyclobutyl-1-methoxy-N-(naphthalene-1-sulfonyl)-5,6,7,8-tetrahydroisoquinoline-8-carboxamide]	≥ 150%	3 to 10 µM	+++ (≥350)	3 to 10 µM
COc1ccc(C2CCC2)c2c1[C@@H](C(=O)NS(=O)(=O)c1cccc3c1CCCN3)CC2 [Example I-122, (1S)-4-cyclobutyl-7-methoxy-N-(1,2,3,4-tetrahydroquinoline-5-sulfonyl)-2,3-dihydro-1H-indene-1-carboxamide]	≥ 150%	3 to 10 µM	+++ (≥350)	3 to 10 µM
COc1ccc(C2CCC2)c2c1[C@@H](C(=O)NS(=O)(=O)c1cccc3ncn(C)c13)CC2 [Example I-123, (1S)-4-cyclobutyl-7-methoxy-N-(1-methyl-1H-benzimidazole-7-sulfonyl)-2,3-dihydro-1H-indene-1-carboxamide]	≥ 150%	3 to 10 µM	+++ (≥350)	< 3 µM
C=C(C)c1ccc(OC)c2c1CCC2C(=O)NS(=O)(=O)c1cccc2ccccc12 (stereo not drawn) [Example I-124, 7-methoxy-N-(naphthalene-1-sulfonyl)-4-(prop-1-en-2-yl)-2,3-dihydro-1H-indene-1-carboxamide]	≥ 150%	< 3 µM	+++ (≥350)	< 3 µM
COc1ccc(C(C)(C)O)c2c1C(C(=O)NS(=O)(=O)c1cccc3ccccc13)CC2 (stereo not drawn) [Example I-125, 4-(2-hydroxypropan-2-yl)-7-methoxy-N-(naphthalene-1-sulfonyl)-2,3-dihydro-1H-indene-1-carboxamide]	50 to 150%	3 to 10 µM	+++ (≥350)	3 to 10 µM
COc1ccc(C2CCC2)c2c1[C@H](C(=O)NS(=O)(=O)c1cccc3ncn(C)c13)CC2 [Example I-126, (1R)-4-cyclobutyl-7-methoxy-N-(1-methyl-1H-benzimidazole-7-sulfonyl)-2,3-dihydro-1H-indene-1-carboxamide]	≥ 150%	< 3 µM	+++ (≥350)	< 3 µM
COc1ccc(C2CCC2)c2c1[C@@H](C(=O)NS(=O)(=O)c1cccc3nc(C)ccc13)CC2 [Example I-127, (1S)-4-cyclobutyl-7-methoxy-N-(2-methylquinoline-5-sulfonyl)-2,3-dihydro-1H-indene-1-carboxamide]	≥ 150%	3 to 10 µM	+++ (≥350)	< 3 µM
COc1ccc(C2CCC2)c2c1[C@H](C(=O)NS(=O)(=O)c1cccc3nc(C)ccc13)CC2 [Example I-128, (1R)-4-cyclobutyl-7-methoxy-N-(2-methylquinoline-5-sulfonyl)-2,3-dihydro-1H-indene-1-carboxamide]	≥ 150%	3 to 10 µM	+++ (≥350)	< 3 µM
COc1ccc(C2CCC2)c2c1[C@H](C(=O)NS(=O)(=O)c1cccc3c1CCCN3)CC2 [Example I-129, (1R)-4-cyclobutyl-7-methoxy-N-(1,2,3,4-tetrahydroquinoline-5-sulfonyl)-2,3-dihydro-1H-indene-1-carboxamide]	≥ 150%	< 3 µM	+++ (≥350)	< 3 µM
COc1ccc(C2CCC2)c2c1C(C(=O)NS(=O)(=O)c1cccc3cnn(C)c13)C2 (stereo not drawn) [Example I-132, 2-cyclobutyl-5-methoxy-N-(1-methyl-1H-indazole-7-sulfonyl)bicyclo[4.2.0]octa-1,3,5-triene-7-carboxamide]	≥ 150%	< 3 µM	+++ (≥350)	< 3 µM
COc1ccc(C2CCC2)c2c1C(C(=O)NS(=O)(=O)c1cccc3ncn(C)c13)CC2 (stereo not drawn) [Example I-133, 4-cyclobutyl-7-methoxy-N-(1-methyl-1H-benzimidazole-7-sulfonyl)-2,3-dihydro-1H-indene-1-carboxamide]	≥ 150%	< 3 µM	+++ (≥350)	< 3 µM
COc1ccc(C2CCC2)c2c1C(C(=O)NS(=O)(=O)c1cccn3nccc13)CC2 (stereo not drawn) [Example I-135, 4-cyclobutyl-7-methoxy-N-(pyrazolo[1,5-a]pyridine-4-sulfonyl)-2,3-dihydro-1H-indene-1-carboxamide]	≥ 150%	3 to 10 µM	+++ (≥350)	< 3 µM
COc1ccc(C2CCC2)c2c1C(C(=O)NS(=O)(=O)c1cccn3nccc13)C2 (stereo not drawn) [Example I-136, 2-cyclobutyl-5-methoxy-N-(pyrazolo[1,5-a]pyridine-4-sulfonyl)bicyclo[4.2.0]octa-1,3,5-triene-7-carboxamide]	≥ 150%	< 3 µM	+++ (≥350)	< 3 µM
COc1ccc(C2CCCO2)c2c1C(C(=O)NS(=O)(=O)c1cccc3ccccc13)CC2 (stereo not drawn) [Example I-138, 7-methoxy-N-(naphthalene-1-sulfonyl)-4-(oxolan-2-yl)-2,3-dihydro-1H-indene-1-carboxamide]	≥ 150%	3 to 10 µM	+++ (≥350)	< 3 µM
COCc1ccc(OC)c2c1CCC2C(=O)NS(=O)(=O)c1cccc2ccccc12 (stereo not drawn) [Example I-139, 7-methoxy-4-(methoxymethyl)-N-(naphthalene-1-sulfonyl)-2,3-dihydro-1H-indene-1-carboxamide]	≥ 150%	3 to 10 µM	+++ (≥350)	< 3 µM
COc1ccc(CC(C)C)c2c1C(C(=O)NS(=O)(=O)c1cccc3ncccc13)CC2 (stereo not drawn) [Example I-140, 7-methoxy-4-(2-methylpropyl)-N-(quinoline-5-sulfonyl)-2,3-dihydro-1H-indene-1-carboxamide]	≥ 150%	< 3 µM	+++ (≥350)	< 3 µM
COc1ccc(C2CCC2)c2c1[C@H](C(=O)NS(=O)(=O)c1cccc3cnn(C)c13)C2 [Example I-144, (7R)-2-cyclobutyl-5-methoxy-N-(1-methyl-1H-indazole-7-sulfonyl)bicyclo[4.2.0]octa-1,3,5-triene-7-carboxamide]	≥ 150%	< 3 µM	+++ (≥350)	< 3 µM
COc1ccc(C2CCC2)c2c1[C@H](C(=O)NS(=O)(=O)c1cccc3c1CCCN3)C2 [Example I-146, (7R)-2-cyclobutyl-5-methoxy-N-(1,2,3,4-tetrahydroquinoline-5-sulfonyl)bicyclo[4.2.0]octa-1,3,5-triene-7-carboxamide]	≥ 150%	< 3 µM	+++ (≥350)	< 3 µM
COc1cccc2c1C(C(=O)NS(=O)(=O)c1cccc3ccccc13)CC2(C)C (stereo not drawn) [Example I-149, 7-methoxy-3,3-dimethyl-N-(naphthalene-1-sulfonyl)-2,3-dihydro-1H-indene-1-carboxamide]	≥ 150%	< 3 µM	+++ (≥350)	< 3 µM
COc1ccc(C2CCC2)c2c1[C@H](C(=O)NS(=O)(=O)c1cccn3nccc13)CC2 [Example I-151, (1R)-4-cyclobutyl-7-methoxy-N-(pyrazolo[1,5-a]pyridine-4-sulfonyl)-2,3-dihydro-1H-indene-1-carboxamide]	≥ 150%	3 to 10 µM	+++ (≥350)	< 3 µM
COc1cccc2c1C(C(=O)NS(=O)(=O)c1cccc3ncccc13)CC2(C)C (stereo not drawn) [Example I-152, 7-methoxy-3,3-dimethyl-N-(quinoline-5-sulfonyl)-2,3-dihydro-1H-indene-1-carboxamide]	≥ 150%	3 to 10 µM	+++ (≥350)	< 3 µM
